Each structure is given as a SMILES string. Activity calls are given as the source filed them. No cut-off for these calls is given here.

Data set [1] deals with Nucleic Acid. Nature of the data set: Binding affinity to calf thymus DNA assessed as change in melting temperature. The class given is nucleic-acid assay. As to conditions: Bos taurus.
Data set [2] has as its system Nucleic Acid. Nature of the data set: Binding affinity to oligonucleotide d(CGTACG)2 by DNA intercalation assay. The class given is nucleic-acid assay.
Data set [3] concerns KRJ-I. Nature of the data set: Antiproliferative activity against human KRJ-I cells at 10 uM after 72 hrs by WST-1 assay. It is filed as functional, cell-based.
For data set [4], the system named is MTC-SK. Nature of the data set: Antiproliferative activity against human MTC-SK cells at 10 uM after 72 hrs by WST-1 assay. The class given is functional, cell-based. (In general: Tetrazolium dyes change colour on reduction, which living cells bring about.)
Data set [5] in a line: (§1) Cytotoxicity against human KRJ-I cells assessed as decrease in cell viability at 10 uM after 72 hrs by WST-1 assay. It is filed as functional.
Data set [6] has as its system KRJ-I. Described as §1. The class given is functional.
Data set [7] in a line: (§2) Cytotoxicity against human MTC-SK cells assessed as decrease in cell viability at 10 uM after 72 hrs by WST-1 assay. The class given is functional.
The subject of data set [8] is MTC-SK. The data set is described as §2. The class given is functional.
Data set [9] is described as follows: (§3) Antiproliferative activity against human KRJ-I cells after 72 hrs by WST-1 assay. It is filed as functional, cell-based.
The test system of data set [10] is KRJ-I. Described as §3. It is filed as functional, cell-based.
Data set [11] in a line: (§4) Antiproliferative activity against human MTC-SK cells after 72 hrs by WST-1 assay. The class given is functional, cell-based.
The subject of data set [12] is MTC-SK. The data set is described as §4. The class given is functional, cell-based.
The nature of data set [13]: (§5) Cytotoxicity against human KRJ-I cells assessed as decrease in cell viability after 72 hrs by WST-1 assay. It is filed as functional, cell-based.
In data set [14] the test system is KRJ-I. The data set is described as §5. The class given is functional, cell-based.
The nature of data set [15]: (§6) Cytotoxicity against human MTC-SK cells assessed as decrease in cell viability after 72 hrs by WST-1 assay. It is filed as functional, cell-based.
In data set [16] the test system is MTC-SK. The data set is described as §6. It is filed as functional, cell-based.
Data set [17] can be described thus: Antiproliferative activity against human HF-SAR cells at 10 uM after 72 hrs by WST-1 assay. It is filed as cell-based.
Data set [18] can be described thus: Cytotoxicity against human HF-SAR cells assessed as decrease in cell viability at 10 uM after 72 hrs by WST-1 assay. It is filed as cell-based.
Data set [19] has as its system KRJ-I. Nature of the data set: Cytotoxicity against human KRJ-I cells assessed as induction of protease activity at 10 uM after 72 hrs by luminescence based assay. It is filed as functional, cell-based.
A short description of data set [20]: Cytotoxicity against human MTC-SK cells assessed as induction of protease activity at 10 uM after 72 hrs by luminescence based assay. The class given is functional.

In the case of `C[n+]1ccc(-c2c3nc(c(-c4cc(-c5ccc6c(c5)C(C)(C)c5ccccc5-6)c[n+](C)c4)c4ccc([nH]4)c(-c4cc[n+](C)cc4)c4nc(c(-c5cc(-c6ccc7c(c6)C(C)(C)c6ccccc6-7)c[n+](C)c5)c5ccc2[nH]5)C=C4)C=C3)cc1.[Cl-].[Cl-].[Cl-].[Cl-]`, the result with Nucleic Acid [1], with Nucleic Acid [2], in the data set on KRJ-I [3], with MTC-SK [4], in the data set on KRJ-I [6] and in the data set on MTC-SK [8] was Active. The Activity in [5] was 95%; in [7], 91%; in the data set with KRJ-I [10], “Dose-dependent effect”; with MTC-SK [12], “Dose-dependent effect”; in the data set with KRJ-I [14] it was “Dose-dependent effect”; with MTC-SK [16], “Dose-dependent effect”. Besides, the Activity entry in [17] is “Active”; in [18], “Not Active”; in [20] it was 46%. Also, the IC50 in data set [9], in [11], in data set [13] and in data set [15] was 22.7 µM in each case. Further, the result with KRJ-I [19] was inactive.
Regarding `C[n+]1ccc(-c2c3nc(c(-c4cc[n+](C)cc4)c4ccc([nH]4)c(-c4cc[n+](C)cc4)c4nc(c(-c5ccc(-c6cn(S(=O)(=O)c7ccccc7)c7ccccc67)cc5)c5ccc2[nH]5)C=C4)C=C3)cc1.[Cl-].[Cl-].[Cl-]`, the outcome in the data set with Nucleic Acid [1], in the data set with KRJ-I [3], with MTC-SK [4], in the data set with KRJ-I [6] and in the data set on MTC-SK [8] was Active. Further, the Activity in [5] was 37%; in data set [7], 74%; in the data set on KRJ-I [10], “Dose-dependent effect”; in the data set on MTC-SK [12], “Dose-dependent effect”; in the data set on KRJ-I [14], “Dose-dependent effect”; in the data set with MTC-SK [16] it was “Dose-dependent effect”. Further, the results for the Activity result in data set [17], in [18] and in data set [20] were “Active”, “Not Active” and 64%, respectively. The IC50 in data set [9], in data set [11], in data set [13] and in data set [15] was 10 µM each time. Further, the outcome with KRJ-I [19] was inactive.
With `C[n+]1ccc(-c2c3nc(c(-c4cc[n+](C)cc4)c4ccc([nH]4)c(-c4cc(-c5ccc6c(c5)C(C)(C)c5ccccc5-6)c[n+](C)c4)c4nc(c(-c5cc[n+](C)cc5)c5ccc2[nH]5)C=C4)C=C3)cc1`, the outcome with Nucleic Acid [2] was Active.

One may read the IC50 as the concentration needed to halve the response being measured.

Source of the values: ChEMBL document CHEMBL1154799, “Asymmetrically substituted cationic indole- and fluorene porphyrins inhibit tumor proliferation in small intestinal neuroendocrine tumors and medullary thyroid carcinomas” (Eur J Med Chem, 2010).
